Counter-ions that a name gives are not always drawn.
Experiments:
[1] = biological target: RNase P from Dictyostelium discoideum; test: RNase P inhibition (pre-tRNA(Ser) cleavage, double reciprocal plots and slope replots); assay type: biochemical; conditions: D. discoideum RNase P; 37° C., buffer D, 10% DMSO; from negative intercept of the slope replots
From the text: Inhibitory Activity on RNAse P. We have developed a method by which we can estimate rapidly the biological activity of the polyamine-retinoid conjugates. This method is based on the effect of the polyamine-retinoid conjugates on RNase P activity and is described in detail under the EXAMPLE 7. All synthesized conjugates were screened for their effect on RNase P activity by constructing the dose response curves. […] The accurate estimation of the inhibitory potency on the RNAse P of the strongest polyamine-retinoid conjugates were elucidated by detailed kinetic analysis of their effect on D. discoideum or human epidermal keratinocytes RNase P activity. In order to carry out such analysis, the initial velocity in the presence or absence of the conjugate was determined from the initial slopes of time plots. The data plotted in double reciprocal plots (1/v versus 1/[S]) with increasing concentrations of polyamine-retinoid conjugates and the Ki values (the dissociation constant of the inhibitor (I), where I is a polyamine-retinoid conjugate, with the enzyme) were determined from the replots of the slopes of the double reciprocal plots versus the inhibitor's concentration (Papadimou et al., J. BIOL. CHEM. 273, 24375 (1998), Papadimou et al., SKIN PHARMACOL. APPL. SKIN PHYSIOL. 13, 345 (2000)). These replots lead to the graphical determination of Ki values from the negative intercept of the line with the I-axis. […] Similar plots were constructed for all conjugates. The Ki value is a very good measure for the accurate potency of the polyamine-retinoid conjugates. […] Similar Ki values were obtained with normal human epidermal keratinocytes RNase P.
(§1) RNase P assays were carried out at 37° C. in 20 μbuffer D (50 mM Tris/HCl pH 7.6, 10 mM NH4Cl, 5 mM MgCl2 and 5 mM dithiothreitol) if RNase P isolated from D. discoideum was used (Stathopoulos et al.; EUR. J. BIOCHEM. 228, 976 (1995)) or buffer K (50 mM Tris/HCl pH 7.5, 100 mM NH4Cl, 5 mM MgCl2 and 5 mM dithiothreitol) if RNase P isolated from human epidermal keratinocytes was used (Drainas et al, unpublished data), containing 2-5 finol pre-tRNA^ser substrate (an in vitro labeled transcript of the Schizosaccharoinyces pombe tRNA^ser gene supSI) and 1.3 μg protein from the RNase P fraction. Stock solutions of retinoids (natural or synthetic), are prepared in 100% dimethylosulfoxide (DMSO). When retinoids are used, enzyme assays are carried out in the presence of 10% DMSO. The reactions were stopped by addition of 5 μl stop dye (80% formamide, 50 mM EDTA, 0.1% bromophenol blue, 0.1% xylene cyanol). Reaction products were resolved on a denaturing 10% polyacrylamide/8 M urea gel and visualized by autoradiography without drying. Activity was quantified by Cerenkov counting of excised gel slices.

[2] = test system: RNase P isolated from D. discoideum; conditions: literature reports; RNase P from D. discoideum and normal human epidermal keratinocytes; cited from earlier work
[3] = test system: RNase P from Dictyostelium discoideum; conditions: literature; RNase P isolated from D. discoideum and from normal human epidermal keratinocytes; cited from earlier work
[4] = biological target: RNase P isolated from D. discoideum; test: RNase P inhibition assay, enzyme from D. discoideum; assay type: biochemical, Dictyostelium discoideum; conditions: negative intercept of slope replots, 37° C., buffer D, 10% DMSO
From the text: Inhibitory Activity on RNAse P. We have developed a method by which we can estimate rapidly the biological activity of the polyamine-retinoid conjugates. This method is based on the effect of the polyamine-retinoid conjugates on RNase P activity and is described in detail under the EXAMPLE 7. All synthesized conjugates were screened for their effect on RNase P activity by constructing the dose response curves. […] In order to carry out such analysis, the initial velocity in the presence or absence of the conjugate was determined from the initial slopes of time plots. The data plotted in double reciprocal plots (1/v versus 1/[S]) with increasing concentrations of polyamine-retinoid conjugates and the Ki values (the dissociation constant of the inhibitor (I), where I is a polyamine-retinoid conjugate, with the enzyme) were determined from the replots of the slopes of the double reciprocal plots versus the inhibitor's concentration (Papadimou et al., J. BIOL. CHEM. 273, 24375 (1998), Papadimou et al., SKIN PHARMACOL. APPL. SKIN PHYSIOL. 13, 345 (2000)). These replots lead to the graphical determination of Ki values from the negative intercept of the line with the I-axis. […] Similar plots were constructed for all conjugates. The Ki value is a very good measure for the accurate potency of the polyamine-retinoid conjugates.
as §1

[5] = Manfredini et al., J. MED. CHEM., 40, 3851 (1997); cited from earlier work
[6] = test system: IL-2 production by peripheral blood mononuclear cells; test: Intracellular IL-2 in PMA/ionomycin-stimulated peripheral blood mononuclear cells (flow cytometry); assay type: cell-based, human
Method: (§2) Anti-Inflammatory Activity. Preliminary experiments were performed to determine the optimum conditions for IL-2 and IFN-γ detection intracellularly (data not shown), which mainly involved determination of brefeldin, ionomycin and PMA concentrations and duration of the incubation period and of the brefeldin presence. It was determined that the addition at the initiation of the incubation period of 5 ng/ml of PMA in combination with 250 ng/ml of ionomycin, as well as the addition for the last 2 h of a 4 h incubation period of 5 μg/ml of brefeldin, were accompanied by a peak release of both cytokines in the intracellular space.
(§3) For the purpose of the study, peripheral blood mononuclear cells (PBMC) from ten healthy volunteers (age 33-52 yrs) were incubated in 1 ml volume (RPMI 1640/10% FCS) for varying time periods at 37° C. in a CO2 (5%) incubator in the presence or absence of PMA (Sigma, St Louis, Mo.), ionomycin (Sigma, St Louis, Mo.) and/or the polyamine-retinoid conjugate (10^−4, 10^−5, 10^−6 M) as well as a protein transport inhibitor, brefeldin (Sigma, St Louis, Mo.) to prevent cytokine secretion in the extracellular space.
(§4) Following this incubation, PBMC were stained with either an anti-CD4-FITC or anti-CD8-FITC monoclonal antibody (Beckton Dikinson Hellas, Athens, Greece) in a PBS buffer containing 0.5% BSA and 0.01% NaN3, and were subsequently fixed with paraformaldehyde and incubated overnight. In the next step, fixed PBMCs were washed and resuspended in a PBS buffer containing 0.5% BSA, 0.5% saponin (Sigma, St Louis, Mo.) (to permeabilize cells) and 0.01% NaN3. Fixed PBMC were subsequently stained with an anti-IL-2/PE or anti-IFN-γ/PE monoclonal antibody (Diaclone, Besancon, France) and analysed for intracellular expression of IL-2 or IFN-γ and membrane expression of the CD4 or CD8 antigens in a FACSCAN flow cytometer. Throughout this step, saponin-supplied PBS was used, since its permeabilisation effect is reversible. The immunofluorescence cut-off was set up in unstimulated cultures as background and results were expressed either as the percentage of CD4/IL-2+ and CD8/IL-2+ (FIG. 9) and CD8/IFN-γ^+ and CD4/IFN-γ^+ (FIG. 11) cells, or alternatively as their mean fluorescence intensity (FIGS. 10 and 12, respectively).

[7] = test system: IFN-γ production by peripheral blood mononuclear cells; test: Intracellular IFN-γ in PMA/ionomycin-stimulated peripheral blood mononuclear cells (flow cytometry); assay type: cell-based, human
Method: as §2, §3
as §4, with “In the next step, fixed PBMCs were washed and resuspended in a PBS buffer containing 0.5% BSA, 0.5% saponin (Sigma, St Louis, Mo.) (to permeabilize cells) and 0.01% NaN3.” left out, “Throughout this step, saponin-supplied PBS was used, since its permeabilisation effect is reversible.” left out

Structure (SMILES) | Ki [1] | inhibition of ribonuclease P (RNase P) [2] | inhibition of the enzyme ribonuclease P (RNase P) [3] | Ki [4] | further results
C/C(=C\c1ccc(C(=O)O)cc1)c1ccc2c(c1)C(C)(C)CCC2(C)C [Ro 13-7410] | 45 µM | inhibit | inhibit the enzyme ribonuclease P | – | –
COc1cc(C)c(/C=C/C(C)=C/C=C/C(C)=C/C(=O)O)c(C)c1C [Acitretin (Aci), acitretin] | – | inhibit | inhibit the enzyme ribonuclease P | 8 µM | –
CCOC(=O)c1ccc(/C=C(\C)c2ccc3c(c2)C(C)(C)CCC3(C)C)cc1 [Ro 13-6298] | 4350 µM | inhibit | inhibit the enzyme ribonuclease P | – | –
C=C1/C(=C\C=C2/CCC[C@]3(C)[C@@H]([C@H](C)/C=C/[C@@H](O)C4CC4)CC[C@@H]23)C[C@@H](O)C[C@@H]1O [calcipotriol] | – | inhibit | inhibit the enzyme ribonuclease P | – | –
CC(C=CC1=C(C)CCCC1(C)C)=CC=CC(C)=CC(=O)NCCCNCCCCNCCCN [3DIIa, N^1-retinoylspermine] | – | – | – | 2.4 µM | –
CC1=C(/C=C/C(C)=C/C=C/C(C)=C/C(=O)NCCCNC(=O)/C=C(C)/C=C/C=C(C)/C=C/C2=C(C)CCCC2(C)C)C(C)(C)CCC1 [N^1, N^3-diretinoyl-1,3-diaminopropane] | – | – | – | – | cytostatic activity [5]: low cytostatic activity
CCS(=O)(=O)c1ccc(/C=C(\C)c2ccc3c(c2)C(C)(C)CCC3(C)C)cc1 [Ro 15-1570] | 3600 µM | inhibit | inhibit the enzyme ribonuclease P | – | –
O=C1c2c(O)cccc2Cc2cccc(O)c21 [anthralin] | – | – | inhibit the enzyme ribonuclease P | – | –
COc1cc(C)c(/C=C/C(C)=C/C=C/C(C)=C/C(=O)NCCCNCCCCNCCCN)c(C)c1C [N^1-Aci-Spermine (3DIIb). 3 HCl, N^1-Aci-Spermine] | 2.45 µM | – | – | – | –
CC1=C(/C=C/C(C)=C/C=C/C(C)=C/CO)C(C)(C)CCC1 [Retinol, retinol] | – | inhibit | inhibit the enzyme ribonuclease P | 1480 µM | –
CC1=C(/C=C/C(C)=C/C=C/C(C)=C/C(=O)O)C(C)(C)CCC1 [all-trans-Retinoic acid (RA), all-trans-retinoic acid] | – | inhibit | inhibit the enzyme ribonuclease P | 15 µM | –
CC1=C(/C=C/C(C)=C/C=C/C(C)=C/C(=O)NCCCNCCCCNCCCNC(=O)/C=C(C)/C=C/C=C(C)/C=C/C2=C(C)CCCC2(C)C)C(C)(C)CCC1 [N^1,N^12-RA2-Spermine (3DIa), N^1,N^12-Bisretinoylspermine] | 0.5 µM | – | – | – | intensity of fluorescence (MFI) of CD4+/IL-2+ cells ([6]; 10^−4 M, PMA/ionomycin-induced): decrease; intensity of fluorescence (MFI) of CD8+/IL-2+ cells ([6]; 10^−4 M, PMA/ionomycin-induced): decrease; percentage of CD4+/IL-2+ cells ([6]; 10^−4 M, PMA/ionomycin-induced): decrease; percentage of CD8+/IL-2+ cells ([6]; 10^−4 M, PMA/ionomycin-induced): decrease; effect on PMA/ionomycin-induced IL-2 (percentage of CD4+/IL-2+ and CD8+/IL-2+ cells, intensity of fluorescence) ([6]; 10^−5 and 10^−6 M): minimal or no effect; CD4+/IFN-γ+ cell intensity of fluorescence ([7]; 10^−4 M, PMA/ionomycin-induced): decrease; percentage of CD8+/IFN-γ+ cells ([7]; 10^−4 M, PMA/ionomycin-induced): decrease; effect on IFN-γ (CD4+/IFN-γ+ intensity of fluorescence, percentage of CD8+/IFN-γ+ cells) ([7]; two lower concentrations, 10^−5 and 10^−6 M): minimal or no effect
CC(C=CC1=C(C)CCCC1(C)C)=CC=CC(C)=CC(=O)N(CCCN)CCCCN(CCCN)C(=O)C=C(C)C=CC=C(C)C=CC1=C(C)CCCC1(C)C [3DIIIa, N^4,N^9-Bis(All-Trans-Retinoyl)Spermine] | – | – | – | 1.1 µM | –
CC1=C(/C=C/C(C)=C/C=C/C(C)=C\C(=O)O)C(C)(C)CCC1 [Isotretinoin, 13-cis-retinoic acid] | – | inhibit | inhibit the enzyme ribonuclease P | 20 µM | –
COc1cc(C)c(/C=C/C(C)=C/C=C/C(C)=C/C(=O)NCCCNCCCCNCCCNC(=O)/C=C(C)/C=C/C=C(C)/C=C/c2c(C)cc(OC)c(C)c2C)c(C)c1C [N^1,N^12-Aci2-Spermine (3DIb). 2 HCl, N^1,N^12-Aci2-Spermine] | 0.95 µM | – | – | – | –
